Values of other authors in patent US20060024422A1, “Salt substitute compositions having N-neohexyl-a-aspartyl-l- phenylalanine methyl ester for modifying flavor and methods of manufacturing the same” (Cumberland Packing Corp., priority 2004, published 2006).

Details: on a weight basis

COC(=O)[C@H](Cc1ccccc1)NC(=O)[C@H](CC(=O)O)NCCC(C)(C)C [neotame, N-[N-(3,3-dimethylbutyl)-L-α-aspartyl]-L-phenylalanine 1-methyl ester]
Sweetness relative to sucrose: approximately 8,000 times
